Assay results reported in paper PMC6522510 (Nature Communications, 2019).
Like-named read-outs stand apart in the source and are kept apart here.

Assays:
Set-up in all cases: species or system AML cell lines (8); Primary HTS, single concentration about 10 uM, Cell Titer Glo viability; log10 luminescence, per cent inhibition relative to cycloheximide control
Conditions in all cases: 72 h, relative to cycloheximide control, log10 luminescence, inhibitor
[1] = test system: CHRF288-11
[2] = test system: CMK
[3] = test system: CMS
[4] = test system: M07e
[5] = test system: ML-2
[6] = test system: MOLM-13
[7] = test system: MV4-11
[8] = test system: U937

Q: `CC=CC1=C(C(=O)O)N2C(=O)[C@@H](NC(=O)[C@H](N)c3ccc(O)cc3)[C@H]2SC1` [SJ000565172-3, CEFPROZIL] was tested. Which CHRF288-11 %inh ([1]; CHRF288-11 %inh, 10 µM) did it give?
A: -2.278%

Q: And the CMK %inh ([2]; CMK %inh, 10 µM)?
A: -7.257%

Q: And the CMS %inh ([3]; CMS %inh, 10 µM)?
A: 0.3567%

Q: And the M07e %inh ([4]; M07e %inh, 10 µM)?
A: -2.148%

Q: And the ML-2 %inh ([5]; ML-2 %inh, 10 µM)?
A: -1.603%

Q: And the MOLM-13 %inh ([6]; MOLM-13 %inh, 10 µM)?
A: -1.663%

Q: What about the MV4-11 %inh ([7]; MV4-11 %inh, 10 µM) of the same compound?
A: -2.606%

Q: And the U937 %inh ([8]; U937 %inh, 10 µM)?
A: -1.915%

Q: What does the source list for `C#C[C@]1(O)CC[C@H]2[C@@H]3CCC4=CCCC[C@@H]4[C@H]3C(=C)C[C@@]21CC` [SJ000565174-1, DESOGESTREL]?
A: CHRF288-11 %inh [1]: 1.152%; CMK %inh [2]: 2.427%; CMS %inh [3]: 2.249%; M07e %inh [4]: 3.523%; ML-2 %inh [5]: 3.09%; MOLM-13 %inh [6]: 0.3348%; MV4-11 %inh [7]: 4.001%; U937 %inh [8]: 2.771%

Q: Which CHRF288-11 %inh [1] does the source give for `COc1ccc2cc1Oc1cc3c(cc1OC)CC[N+](C)(C)[C@H]3Cc1ccc(cc1)Oc1c(OC)c(OC)cc3c1[C@@H](C2)[N+](C)(C)CC3` [SJ000565179-1, METOCURINE IODIDE] here?
A: 0.972%

Q: What about the CMK %inh [2] of the same compound?
A: -2.411%

Q: And the CMS %inh [3]?
A: -2.545%

Q: And the M07e %inh [4]?
A: -0.367%

Q: And the ML-2 %inh [5]?
A: -0.842%

Q: What about the MOLM-13 %inh [6] of the same compound?
A: 0.1471%

Q: What about the MV4-11 %inh [7] of the same compound?
A: 1.51%

Q: What about the U937 %inh [8] of the same compound?
A: -0.03863%

Q: With `CCOC(=O)C(C)Oc1cccc2c(=O)n(CC(=O)Nc3ccc4c(c3)OCCO4)ccc12` (stereo not shown) [SJ000565608-2, SID 7969543] as the compound, how does the CHRF288-11 %inh [1] read?
A: 4.074%

Q: What about the CMK %inh [2] of the same compound?
A: 1.565%

Q: And the CMS %inh [3]?
A: -1.631%

Q: What about the M07e %inh [4] of the same compound?
A: -1.631%

Q: What about the ML-2 %inh [5] of the same compound?
A: 3.909%

Q: What about the MOLM-13 %inh [6] of the same compound?
A: 1.293%

Q: And the MV4-11 %inh [7]?
A: 2.255%

Q: What about the U937 %inh [8] of the same compound?
A: -0.5022%

Q: What does the source list for `COc1ccc(-c2ccc3c(N4CCOC[C@@H]4C)nc(N4CCOC[C@@H]4C)nc3n2)cc1CO` [SJ000571306-4, 1009298-09-2 | AZD8055 | | AZD8055]?
A: CHRF288-11 %inh [1]: 63.41%; CMK %inh [2]: 103.1%; CMS %inh [3]: 58.27%; M07e %inh [4]: 41.99%; ML-2 %inh [5]: 20%; MOLM-13 %inh [6]: 34.83%; MV4-11 %inh [7]: 44.46%; U937 %inh [8]: 53.04%

Q: Which results are given for `Cc1ccccc1-n1c(Cn2cnc3c(N)ncnc32)nc2cccc(C)c2c1=O` [SJ000571308-2, IC-87114 | PIK 293]?
A: CHRF288-11 %inh [1]: 10.49%; CMK %inh [2]: -7.948%; CMS %inh [3]: -0.8579%; M07e %inh [4]: -1.447%; ML-2 %inh [5]: 1.318%; MOLM-13 %inh [6]: 2.064%; MV4-11 %inh [7]: 3.81%; U937 %inh [8]: 0.4255%

Q: For `Fc1cccc(COc2ccc(Nc3ncnc4sc(-c5ccco5)cc34)cc2Cl)c1` [SJ000573002-1, U22476/39/2], which CHRF288-11 %inh [1] is on record?
A: -4.95%

Q: And the CMK %inh [2]?
A: -2.703%

Q: What about the CMS %inh [3] of the same compound?
A: 0.3499%

Q: And the M07e %inh [4]?
A: -3.433%

Q: What about the ML-2 %inh [5] of the same compound?
A: 0.9644%

Q: What about the MOLM-13 %inh [6] of the same compound?
A: -2.902%

Q: What about the MV4-11 %inh [7] of the same compound?
A: -1.439%

Q: And the U937 %inh [8]?
A: 0.5844%

Q: With `COc1cc2ncn(-c3cc(O[C@@H](C)c4ccccc4Cl)c(C(N)=O)s3)c2cc1OC` [SJ000573003-1, U20723/53/1 | U20723/56/1] as the compound, how does the CHRF288-11 %inh [1] read?
A: 52.73%

Q: What about the CMK %inh [2] of the same compound?
A: 79.08%

Q: What about the CMS %inh [3] of the same compound?
A: 40.55%

Q: And the M07e %inh [4]?
A: 89.94%

Q: What about the ML-2 %inh [5] of the same compound?
A: 43.99%

Q: What about the MOLM-13 %inh [6] of the same compound?
A: 83.64%

Q: What about the MV4-11 %inh [7] of the same compound?
A: 67.89%

Q: What about the U937 %inh [8] of the same compound?
A: 74.14%

Q: For `COc1cc2ncn(-c3cc(O[C@H](C)c4ccccc4Cl)c(C(N)=O)s3)c2cc1OC` [SJ000573003-2, U20723/53/1 | U20723/56/1], which CHRF288-11 %inh [1] is on record?
A: 41.02%

Q: And the CMK %inh [2]?
A: 110.4%

Q: And the CMS %inh [3]?
A: 80.13%

Q: And the M07e %inh [4]?
A: 88.84%

Q: And the ML-2 %inh [5]?
A: 11.11%

Q: What about the MOLM-13 %inh [6] of the same compound?
A: 108.1%

Q: And the MV4-11 %inh [7]?
A: 78.95%

Q: What about the U937 %inh [8] of the same compound?
A: 82.96%

Q: `CS(=O)(=O)CCNCc1ccc(-c2ccc3ncnc(Nc4ccc(OCc5ccccc5)c(Cl)c4)c3c2)o1` [SJ000573004-1, U12816/179/1] was tested. Which CHRF288-11 %inh [1] did it give?
A: 2.861%

Q: And the CMK %inh [2]?
A: 1.726%

Q: And the CMS %inh [3]?
A: -1.14%

Q: What about the M07e %inh [4] of the same compound?
A: -1.936%

Q: And the ML-2 %inh [5]?
A: 2.349%

Q: What about the MOLM-13 %inh [6] of the same compound?
A: -1.767%

Q: What about the MV4-11 %inh [7] of the same compound?
A: 1.075%

Q: And the U937 %inh [8]?
A: -2.727%

Q: What does the source list for `[O-][S+]1CCN(Cc2ccc(-c3ccc4ncnc(Nc5ccc(OCc6cccc(F)c6)c(Cl)c5)c4c3)o2)CC1` [SJ000573006-1, U16708/127/1]?
A: CHRF288-11 %inh [1]: 12.8%; CMK %inh [2]: 4.042%; CMS %inh [3]: 4.852%; M07e %inh [4]: -1.786%; ML-2 %inh [5]: 0.7137%; MOLM-13 %inh [6]: -0.7641%; MV4-11 %inh [7]: -1.095%; U937 %inh [8]: -0.3031%

Q: Which results are given for `CCS(=O)(=O)c1ccc(OC)c(Nc2ncc(-c3cccc(F)c3)o2)c1` [SJ000573008-1, U15747/41/2]?
A: CHRF288-11 %inh [1]: -0.1874%; CMK %inh [2]: 0.9043%; CMS %inh [3]: 0.7614%; M07e %inh [4]: 1.435%; ML-2 %inh [5]: 0.9608%; MOLM-13 %inh [6]: 34.16%; MV4-11 %inh [7]: 41.43%; U937 %inh [8]: 1.214%

Q: How did the CHRF288-11 %inh [1] turn out when `COc1cc(Nc2ncc(-c3ccccc3)o2)cc(OC)c1OC` [SJ000573009-1, U21834/26/1] was run?
A: 41.65%

Q: What about the CMK %inh [2] of the same compound?
A: 106.1%

Q: What about the CMS %inh [3] of the same compound?
A: 12.03%

Q: And the M07e %inh [4]?
A: 25.07%

Q: What about the ML-2 %inh [5] of the same compound?
A: 46.26%

Q: And the MOLM-13 %inh [6]?
A: 93.46%

Q: And the MV4-11 %inh [7]?
A: 70.39%

Q: And the U937 %inh [8]?
A: 48.56%

Q: How did the CHRF288-11 %inh [1] turn out when `O=S(=O)(CCNCc1ccc(-c2ccc3ncnc(Nc4ccc(OCc5cccc(F)c5)c(Cl)c4)c3c2)o1)c1ccccc1` [SJ000573010-1, U15277/78/1] was run?
A: -1.699%

Q: And the CMK %inh [2]?
A: 1.889%

Q: And the CMS %inh [3]?
A: -1.695%

Q: What about the M07e %inh [4] of the same compound?
A: -3.622%

Q: What about the ML-2 %inh [5] of the same compound?
A: 0.08634%

Q: What about the MOLM-13 %inh [6] of the same compound?
A: 2.488%

Q: What about the MV4-11 %inh [7] of the same compound?
A: -1.134%

Q: What about the U937 %inh [8] of the same compound?
A: 1.807%

Q: Which CHRF288-11 %inh [1] does the source give for `CS(=O)(=O)CCNCc1ccc(-c2ccc3ncnc(Nc4ccc(OCc5ccccc5)c(Br)c4)c3c2)o1` [SJ000573011-1, U14801/114/2] here?
A: 1.432%

Q: What about the CMK %inh [2] of the same compound?
A: 0.7024%

Q: And the CMS %inh [3]?
A: 2.264%

Q: What about the M07e %inh [4] of the same compound?
A: -3.258%

Q: What about the ML-2 %inh [5] of the same compound?
A: -0.7119%

Q: What about the MOLM-13 %inh [6] of the same compound?
A: 0.135%

Q: And the MV4-11 %inh [7]?
A: 1.235%

Q: And the U937 %inh [8]?
A: -1.717%

Q: With `Fc1ccc(-c2ncn(C3CCNCC3)c2-c2ccnc(Oc3ccc(F)c(F)c3)n2)cc1` [SJ000573012-1, JB27026-232B1] as the compound, how does the CHRF288-11 %inh [1] read?
A: -0.6747%

Q: What about the CMK %inh [2] of the same compound?
A: 0.6183%

Q: And the CMS %inh [3]?
A: 1.648%

Q: And the M07e %inh [4]?
A: -2.095%

Q: And the ML-2 %inh [5]?
A: 1.308%

Q: And the MOLM-13 %inh [6]?
A: -3.394%

Q: What about the MV4-11 %inh [7] of the same compound?
A: 1.825%

Q: And the U937 %inh [8]?
A: -1.918%

Q: Which results are given for `Fc1ccc(-c2ncn(C3CCNCC3)c2-c2ccnc(Oc3ccccc3)n2)cc1` [SJ000573013-1, JB19236-077B1]?
A: CHRF288-11 %inh [1]: 6.56%; CMK %inh [2]: -1.927%; CMS %inh [3]: -0.5294%; M07e %inh [4]: 0.9358%; ML-2 %inh [5]: 1.79%; MOLM-13 %inh [6]: -2.821%; MV4-11 %inh [7]: 0.9088%; U937 %inh [8]: 2.101%

Q: Which results are given for `C[C@@H](Oc1cc(-n2cnc3ccc(OC4CCN(C)CC4)cc32)sc1C(N)=O)c1ccccc1Cl` [SJ000573015-1, U20958/186/1]?
A: CHRF288-11 %inh [1]: 79.26%; CMK %inh [2]: 85.68%; CMS %inh [3]: 56.77%; M07e %inh [4]: 91.2%; ML-2 %inh [5]: 28.2%; MOLM-13 %inh [6]: 100.2%; MV4-11 %inh [7]: 65.04%; U937 %inh [8]: 71%

Q: With `CS(=O)(=O)CCN(CC#N)Cc1ccc(-c2ccc3ncnc(Nc4ccc(OCc5cccc(F)c5)c(Cl)c4)c3c2)o1` [SJ000573016-1, U15872/6/1] as the compound, how does the CHRF288-11 %inh [1] read?
A: -2.462%

Q: And the CMK %inh [2]?
A: 0.1592%

Q: And the CMS %inh [3]?
A: 3.038%

Q: What about the M07e %inh [4] of the same compound?
A: 3.973%

Q: And the ML-2 %inh [5]?
A: -0.1489%

Q: What about the MOLM-13 %inh [6] of the same compound?
A: 0.2014%

Q: And the MV4-11 %inh [7]?
A: -0.4968%

Q: And the U937 %inh [8]?
A: 1.155%

Q: With `COc1cc2ncn(-c3cc(OCc4ccccc4C(F)(F)F)c(C(N)=O)s3)c2cc1OC` [SJ000573017-1, U19479/72/1] as the compound, how does the CHRF288-11 %inh [1] read?
A: 5.686%

Q: And the CMK %inh [2]?
A: 61.69%

Q: What about the CMS %inh [3] of the same compound?
A: 10.85%

Q: And the M07e %inh [4]?
A: 75.37%

Q: And the ML-2 %inh [5]?
A: 50.35%

Q: What about the MOLM-13 %inh [6] of the same compound?
A: 75.9%

Q: And the MV4-11 %inh [7]?
A: 11.51%

Q: What about the U937 %inh [8] of the same compound?
A: 52.87%
